Reference: patent US7348427B2, “Antipathogenic benzamide compounds” (Genesoft Pharmaceuticals, Inc., priority 2001, dated 2008)
In brackets after ≈: the same amount, converted by molar mass.

What was measured:
[1] = system: Candida albicans (ATCC 38247); test: Antifungal MIC assay; assay type: cell-based; conditions: B = C. albicans ATCC 38247; for MIC: Candida albicans, ATCC38247, read-out: Minimum Inhibitory Concentration (MIC)
How it was run: (§1)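 Activity is measured as MIC in microtiter broth microdilution under NCCLS M7-A4, M11-A4 and M27-T guidance, with the yeast tested by the method in Murray's Manual of Clinical Microbiology.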

[2] = system: S. pneumoniae ATCC 49619; test: MIC, NCCLS broth microdilution assay; assay type: cell-based, Streptococcus pneumoniae; conditions: H = S. pneumoniae ATCC 49619; for MIC: Streptococcus pneumoniae, ATCC49619, read-out: Minimum Inhibitory Concentration (MIC)
How it was run: (§2)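 MICs were determined by NCCLS broth microdilution following documents M7-A4 and M11-A4 (1997).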

[3] = system: Staphylococcus aureus (ATCC 13709, a methicillin sensitive strain (MSSA)); test: MIC, NCCLS broth microdilution assay; assay type: cell-based; conditions: E = S. aureus ATCC 13709; for MIC: Staphylococcus aureus, read-out: Minimum Inhibitory Concentration (MIC)
How it was run: as §1

[4] = system: Enterococcus faecium (ATCC 51559, a vancomycin resistant strain (VRE)); test: MIC, NCCLS broth microdilution assay; assay type: cell-based; conditions: D = E. faecium ATCC 51559
How it was run: as §1

[5] = system: Streptococcus pneumoniae (ATCC 51422, a penicillin resistant strain (PRSP)); test: MIC, NCCLS broth microdilution assay; assay type: cell-based; conditions: I = S. pneumoniae ATCC 51422
How it was run: as §1

[6] = system: Staphylococcus aureus (ATCC 27660, a methicillin resistant strain (MRSA)); test: MIC, NCCLS broth microdilution assay; assay type: cell-based; conditions: F = S. aureus ATCC 27660; for MIC: Staphylococcus aureus, read-out: Minimum Inhibitory Concentration (MIC)
How it was run: as §1

[7] = system: Bacillus cereus (ATCC 11778); test: MIC, NCCLS broth microdilution assay; assay type: cell-based; conditions: A = B. cereus ATCC 11778; for MIC: Bacillus cereus, ATCC11778, read-out: Minimum Inhibitory Concentration (MIC)
How it was run: as §1

[8] = system: E. faecalis ATCC 29212; test: MIC, NCCLS broth microdilution assay; assay type: cell-based, Enterococcus faecalis; conditions: C = E. faecalis ATCC 29212; for MIC: Enterococcus faecalis, ATCC29212, read-out: Minimum Inhibitory Concentration (MIC)
How it was run: as §2

Row | MIC [1] | MIC [2] | MIC [3] | MIC [6] | MIC [7] | MIC [8] | Structure (SMILES) | Minimum Inhibitory Concentration (MIC) [1] | Minimum Inhibitory Concentration (MIC) [2] | Minimum Inhibitory Concentration (MIC) [3] | Minimum Inhibitory Concentration (MIC) [4] | Minimum Inhibitory Concentration (MIC) [5] | Minimum Inhibitory Concentration (MIC) [6] | Minimum Inhibitory Concentration (MIC) [7] | Minimum Inhibitory Concentration (MIC) [8]
1 |  |  |  |  |  |  | Cn1cc(NC(=O)c2cc(NC(=O)c3ccc(F)cc3)cn2C)cc1C(=O)NCCN1CCOCC1 [Compound B-36] | >32 µg/mL | + (+ = 12 ≦ MIC ≦ 32) | >32 µg/mL | + (+ = 12 ≦ MIC ≦ 32) | >32 µg/mL | >32 µg/mL | >32 µg/mL | >32 µg/mL
2 |  |  |  |  |  |  | Cc1cc(NC(=O)c2cc(NC(=O)c3cc(NC(=O)c4ccc(F)cc4F)c[nH]3)cn2CCN2CCOCC2)sn1 [Compound D-4] | >32 µg/mL | >32 µg/mL | >32 µg/mL |  | +++ (+++ = MIC ≦ 4) | >32 µg/mL | >32 µg/mL | >32 µg/mL
3 |  |  |  |  |  |  | CN(C)CCCn1cc(NC(=O)c2cc(NC(=O)c3ccc(Cl)cc3F)cn2C)cc1C(=O)Nc1cc(C(=O)NCCN2CCOCC2)n(C)c1 [Compound D-25] | + (+ = 12 ≦ MIC ≦ 32) | +++ (+++ = MIC ≦ 4) | +++ (+++ = MIC ≦ 4) |  |  | +++ (+++ = MIC ≦ 4) | +++ (+++ = MIC ≦ 4) | +++ (+++ = MIC ≦ 4)
4 |  |  |  |  |  |  | CN(C)CCCn1cc(NC(=O)c2cc(NC(=O)c3ccc(Cl)cc3F)c[nH]2)cc1C(=O)Nc1cc(C(=O)NCCN2CCOCC2)n(C)c1 [Compound D-26] | + (+ = 12 ≦ MIC ≦ 32) | +++ (+++ = MIC ≦ 4) | +++ (+++ = MIC ≦ 4) |  |  | +++ (+++ = MIC ≦ 4) | +++ (+++ = MIC ≦ 4) | +++ (+++ = MIC ≦ 4)
5 |  |  |  |  |  |  | Cn1cc(NC(=O)c2cc(NC(=O)c3cc(NC(=O)c4ccc(Cl)cc4)cn3C)cn2CCN2CCOCC2)cc1C(=O)NCCN1CCOCC1 [Compound D-27] | >32 µg/mL | +++ (+++ = MIC ≦ 4) | + (+ = 12 ≦ MIC ≦ 32) |  |  | + (+ = 12 ≦ MIC ≦ 32) | ++ (++ = 4 < MIC < 12) | +++ (+++ = MIC ≦ 4)
6 |  |  |  |  |  |  | Cc1cc(NC(=O)c2cc(NC(=O)c3cc(NC(=O)c4ccc(Cl)cc4)cn3C)cn2CCN2CCOCC2)sn1 [Compound D-28] | >32 µg/mL | +++ (+++ = MIC ≦ 4) | + (+ = 12 ≦ MIC ≦ 32) |  |  | + (+ = 12 ≦ MIC ≦ 32) | + (+ = 12 ≦ MIC ≦ 32) | + (+ = 12 ≦ MIC ≦ 32)
7 |  |  |  |  |  |  | Cn1cc(NC(=O)c2cc(NC(=O)c3ccc(F)cc3F)no2)cc1C(=O)NCCN1CCOCC1 [Compound E-3] | >32 µg/mL | + (+ = 12 ≦ MIC ≦ 32) | >32 µg/mL |  |  | + (+ = 12 ≦ MIC ≦ 32) | + (+ = 12 ≦ MIC ≦ 32) | + (+ = 12 ≦ MIC ≦ 32)
8 | > 32 µg/mL | ≤ 4 µg/mL | ≤ 4 µg/mL | ≤ 4 µg/mL | 12 to 32 µg/mL (≈ 19.2 to 51.2 µM) | ≤ 4 µg/mL | Cn1cc(NC(=O)c2cc(NC(=O)c3cc(NC(=O)c4ccc(F)cc4F)no3)cn2C)cc1C(=O)NCCN1CCOCC1 [Compound E-8] |  |  |  |  |  |  |  | 
9 | > 32 µg/mL | 12 to 32 µg/mL (≈ 18.7 to 49.9 µM) | > 32 µg/mL | > 32 µg/mL | > 32 µg/mL | 12 to 32 µg/mL (≈ 18.7 to 49.9 µM) | Cn1cc(NC(=O)c2cc(NC(=O)c3cnc(NC(=O)c4ccc(F)cc4F)s3)cn2C)cc1C(=O)NCCN1CCOCC1 [Compound E-9] |  |  |  |  |  |  |  | 
